This note sets out measurements from BindingDB's records for doi:10.1021/jm00177a018 (1980).

This experiment addresses Aldehyde oxidase (Oryctolagus cuniculus). In words: Tested for its ability to inhibit rabbit liver aldehyde oxidase catalyzed oxidation of N-methyl-nicotinamide (NMN).

SMILES strings stand for the structures.

Compound `CCOP(=O)(CCC=O)c1ccccc1` (stereo not drawn) gave a Ki of 100 µM.
Next, `CCOP(=O)(CC=O)OCC`: 300 µM.
Next, `CCOC(CCP(=O)(OCC)OCC)OCC`: 200 µM.

One may read the Ki as a measure of affinity in units of concentration, obtained from inhibition or displacement. High values mean weaker binding, low ones tighter binding.
